This note sets out measurements from PubChem BioAssay AID330 (DTP/NCI, 2004).

The assay relates to P388 leukemia ip, CD2F1 mice, survival T/C. In words: NCI In Vivo Anticancer Drug Screen. Data for tumor model P388 Leukemia (intraperitoneal) in CD2F1 (CDF1) mice. To be noted: endpoint: median survival time, higher = longer survival. The method, boiled down: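 Mice carrying the transplanted tumor received test compound or vehicle. Survival was recorded in each group, and the value is the treated-group measurement divided by that of the vehicle-treated control group.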

[1] abbreviates: dose: 25.0 mg/kg/injection, schedule: Q04DX003 (ip), vehicle: saline with Tween-80.
[2] abbreviates: dose: 50.0 mg/kg/injection, schedule: Q04DX003 (ip), vehicle: saline with Tween-80.
Setting [3] is: dose: 400.0 mg/kg/injection, schedule: Q04DX002 (ip), vehicle: Klucel (hydroxypropylcellulose) (HPC).
The mark [4] stands for this setting: dose: 50.0 mg/kg/injection, schedule: Q01DX009 (ip), vehicle: Klucel (hydroxypropylcellulose) (HPC).
The mark [5] stands for this setting: dose: 100.0 mg/kg/injection, schedule: Q01DX009 (ip), vehicle: Klucel (hydroxypropylcellulose) (HPC).
The mark [6] stands for this setting: dose: 200.0 mg/kg/injection, schedule: Q01DX009 (ip), vehicle: Klucel (hydroxypropylcellulose) (HPC).
The mark [7] stands for this setting: dose: 12.5 mg/kg/injection, schedule: Q01DX009 (ip), vehicle: saline with Tween-80.
[8] abbreviates: dose: 50.0 mg/kg/injection, schedule: Q01DX005 (ip), vehicle: saline.
Setting [9] is: dose: 100.0 mg/kg/injection, schedule: Q01DX005 (ip), vehicle: saline.
[10] abbreviates: dose: 200.0 mg/kg/injection, schedule: Q01DX005 (ip), vehicle: saline.
[11] abbreviates: dose: 50.0 mg/kg/injection, schedule: Q01DX005 (ip), vehicle: Klucel (hydroxypropylcellulose) (HPC).
Where [12] appears, read: dose: 100.0 mg/kg/injection, schedule: Q01DX005 (ip), vehicle: Klucel (hydroxypropylcellulose) (HPC).
The mark [13] stands for this setting: dose: 200.0 mg/kg/injection, schedule: Q01DX005 (ip), vehicle: Klucel (hydroxypropylcellulose) (HPC).

Values joined by “and” are separate entries in the source; they are usually repeats but may differ in a detail not shown here. Equal values may be shown once. Toxic doses and inconclusive results are not listed.

`COc1ccc(C#N)cc1OC`: the T/C was 99 % of control (dose: 6.25 mg/kg/injection, schedule: Q01DX009 (ip), vehicle: saline); 108 % of control (dose: 12.5 mg/kg/injection, schedule: Q01DX009 (ip), vehicle: saline); 92 % of control (dose: 25.0 mg/kg/injection, schedule: Q01DX009 (ip), vehicle: saline); 92 % of control (dose: 50.0 mg/kg/injection, schedule: Q01DX009 (ip), vehicle: saline).

Take `CCOC(=O)Cc1ccc2c(c1)sc1nc(-c3ccc(OC)cc3)cn12`: the T/C (dose: 50.0 mg/kg/injection, schedule: Q01DX009 (ip), vehicle: DMSO) is 104 % of control; the T/C (dose: 100.0 mg/kg/injection, schedule: Q01DX009 (ip), vehicle: DMSO) is 103 % of control; the T/C (dose: 200.0 mg/kg/injection, schedule: Q01DX009 (ip), vehicle: DMSO) is 94 % of control.

Take `COC(CNC(=O)Nc1cccnc1)[CH2][Hg][Cl]` (centres undefined): the T/C was 91 % of control under setting [1] and 116 % of control under setting [2].

Take `O=C1C2=C3C(=CC4COC3O4)C3C4COC(O4)C(=O)C3C2C2COC1O2` (centres undefined): the T/C was 115 % of control (dose: 100.0 mg/kg/injection, schedule: Q04DX002 (ip), vehicle: Klucel (hydroxypropylcellulose) (HPC)); 109 % of control (dose: 200.0 mg/kg/injection, schedule: Q04DX002 (ip), vehicle: Klucel (hydroxypropylcellulose) (HPC)); 115 % of control under setting [3].

For the compound `Clc1ccc2nc3ccccc3c(SCCCCCCSc3c4ccccc4nc4ccc(Cl)cc34)c2c1`, the T/C runs as follows: (dose: 7.5 mg/kg/injection, schedule: Q01DX005 (ip), vehicle: Klucel (hydroxypropylcellulose) (HPC)) 103 % of control; (dose: 15.0 mg/kg/injection, schedule: Q01DX005 (ip), vehicle: Klucel (hydroxypropylcellulose) (HPC)) 97 % of control; (dose: 240.0 mg/kg/injection, schedule: Q01DX005 (ip), vehicle: Klucel (hydroxypropylcellulose) (HPC)) 89 % of control.

Turning to `CCCN=C(N)c1ccc(N=C(N)c2ccc(N=C(N)c3ccc(C(N)=NCCC)cc3)cc2)cc1`, the T/C (dose: 0.08 mg/kg/injection, schedule: Q01DX009 (ip), vehicle: saline) was 100 % of control; the T/C (dose: 0.15 mg/kg/injection, schedule: Q01DX009 (ip), vehicle: saline) is 100 % of control; the T/C (dose: 0.3 mg/kg/injection, schedule: Q01DX009 (ip), vehicle: saline) was 110 % of control; the T/C (dose: 1.25 mg/kg/injection, schedule: Q01DX009 (ip), vehicle: saline) was 154 % of control; the T/C (dose: 2.5 mg/kg/injection, schedule: Q01DX009 (ip), vehicle: saline) was 118 % of control; the T/C (dose: 5.0 mg/kg/injection, schedule: Q04DX003 (ip), vehicle: saline with Tween-80) was 95 % of control. For the same compound, the T/C reads like this: (dose: 10.0 mg/kg/injection, schedule: Q01DX009 (ip), vehicle: saline) 150 % of control; (dose: 10.0 mg/kg/injection, schedule: Q04DX003 (ip), vehicle: saline with Tween-80) 100 % of control; (dose: 15.0 mg/kg/injection, schedule: Q01DX009 (ip), vehicle: saline) 172 % of control; (dose: 20.0 mg/kg/injection, schedule: Q01DX009 (ip), vehicle: saline with Tween-80) 200 % of control; (dose: 20.0 mg/kg/injection, schedule: Q04DX003 (ip), vehicle: saline with Tween-80) 100 % of control.

Take `COC(=O)c1ccccc1NC1OC(CO)C(O)C1O` (centres undefined): the T/C is, setting by setting: (dose: 60.0 mg/kg/injection, schedule: Q01DX005 (ip), vehicle: saline with Tween-80) 104 % of control; (dose: 120.0 mg/kg/injection, schedule: Q01DX005 (ip), vehicle: saline with Tween-80) 98 % of control; (dose: 240.0 mg/kg/injection, schedule: Q01DX005 (ip), vehicle: saline with Tween-80) 93 % of control.

`O=C1CC2(CCCCC2)CC(=O)N1c1ccc(O)c(CN2CCCCC2)c1`: the T/C under setting [4] was 104 % of control, the T/C under setting [5] was 108 % of control and the T/C under setting [6] was 102 % of control.

Regarding `CC1(C)C(/C=C\c2ccc(O)cc2)=Nc2ccccc21`, the T/C (dose: 3.12 mg/kg/injection, schedule: Q01DX009 (ip), vehicle: saline with Tween-80) was 105 % of control; the T/C (dose: 6.25 mg/kg/injection, schedule: Q01DX009 (ip), vehicle: saline with Tween-80) is 100 % of control; the T/C under setting [7] was 108 % of control.

Take `C1=C(c2ccccc2)CS1`: the T/C (dose: 100.0 mg/kg/injection, schedule: Q01DX001 (ip), vehicle: saline with Tween-80) was 102 % of control.

Turning to `O=C(O)CCCCCCCCCCNC(=O)CCl`, the T/C is 88 % of control under setting [4] and 91 % of control under setting [5].

Take `CC12CCC(C=C1N1CCOCC1)C(C)(C)O2` (centres undefined): the T/C reads like this: (dose: 25.0 mg/kg/injection, schedule: Q01DX005 (ip), vehicle: saline with Tween-80) 97 % of control; (dose: 25.0 mg/kg/injection, schedule: Q01DX005 (ip), vehicle: saline) 100 % of control; (dose: 50.0 mg/kg/injection, schedule: Q01DX005 (ip), vehicle: saline with Tween-80) 103 % of control; under setting [8], 102 % of control; (dose: 100.0 mg/kg/injection, schedule: Q01DX005 (ip), vehicle: saline with Tween-80) 94 % of control; under setting [9], 100 % of control. Moreover, the T/C is 94 % of control (dose: 200.0 mg/kg/injection, schedule: Q01DX005 (ip), vehicle: saline with Tween-80) and 99 % of control under setting [10].

Regarding `O=C1c2ccccc2-n2c1nc1ccc([N+](=O)[O-])cc1c2=O`, the T/C was 103 % of control under setting [11], 97 % of control under setting [12], 94 % of control under setting [13] and 96 % of control under setting [3].

Regarding `COc1ccc(OC)c2cc3c(cc12)C(=O)c1ccccc1C3=O`, the T/C was 87 % of control under setting [11], 88 % of control under setting [12] and 91 % of control under setting [13].

Turning to `CN1c2ccccc2C2=C(C(=O)CCS2)S1(=O)=O`, the T/C runs as follows: under setting [8], 109 % of control; under setting [9], 100 % of control; under setting [10], 101 % of control.

For `CC(/C=C/c1ccccc1)=N\NC(=O)c1ccccc1`, the T/C (dose: 6.25 mg/kg/injection, schedule: Q01DX005 (ip), vehicle: Klucel (hydroxypropylcellulose) (HPC)) was 108 % of control; the T/C (dose: 12.5 mg/kg/injection, schedule: Q01DX005 (ip), vehicle: Klucel (hydroxypropylcellulose) (HPC)) was 97 % of control; the T/C (dose: 25.0 mg/kg/injection, schedule: Q01DX005 (ip), vehicle: Klucel (hydroxypropylcellulose) (HPC)) is 100 % of control and 108 % of control and 96 % of control; the T/C under setting [12] is 112 % of control.

Consider `O=C(O)/C=C\C(=O)OCc1ccc(Cl)cc1Cl`, for which the T/C runs as follows: (dose: 25.0 mg/kg/injection, schedule: Q01DX009 (ip), vehicle: saline with Tween-80) 86 % of control; (dose: 50.0 mg/kg/injection, schedule: Q01DX009 (ip), vehicle: saline with Tween-80) 90 % of control.

Turning to `CCOC(=O)C(C)n1ncnn1` (centres undefined), the T/C under setting [8] is 107 % of control, the T/C under setting [9] is 102 % of control and the T/C under setting [10] is 98 % of control.

On to `Clc1ccc2nc(CI)c(CI)nc2c1`, for which the T/C by setting is: (dose: 5.5 mg/kg/injection, schedule: Q01DX009 (ip), vehicle: saline with Tween-80) 104 % of control; (dose: 8.3 mg/kg/injection, schedule: Q01DX009 (ip), vehicle: saline with Tween-80) 95 % of control; under setting [7], 100 % of control; (dose: 18.7 mg/kg/injection, schedule: Q01DX009 (ip), vehicle: saline with Tween-80) 118 % of control; under setting [1], 118 % of control; under setting [2], 118 % of control. Further, the T/C (dose: 100.0 mg/kg/injection, schedule: Q04DX003 (ip), vehicle: saline with Tween-80) was 122 % of control.

For the compound `CCCCOc1ccc(C(=O)OCCNC2CCCCC2)cc1N`, the T/C was 100 % of control (dose: 6.25 mg/kg/injection, schedule: Q01DX009 (ip), vehicle: Klucel (hydroxypropylcellulose) (HPC)); 101 % of control (dose: 12.5 mg/kg/injection, schedule: Q01DX009 (ip), vehicle: Klucel (hydroxypropylcellulose) (HPC)); 93 % of control (dose: 25.0 mg/kg/injection, schedule: Q01DX009 (ip), vehicle: Klucel (hydroxypropylcellulose) (HPC)); 91 % of control under setting [4].

Take `FC(F)(F)c1cccc(OCC2CO2)c1` (centres undefined): the T/C is 102 % of control under setting [4], 99 % of control under setting [5] and 97 % of control under setting [6].
